“And” between values parts separate entries of the source, which are not always exact repeats. Identical values can stand only once. One block for each compound: values may come before it.
Assay: solvent given as SMILES

Compound: Oc1cccc(/N=C/c2ccccc2Oc2ccccc2)c1
absorption maximum (in C1CCCCC1): 322 nm
absorption maximum (in C1CCOC1): 327 nm
absorption maximum (in C1COCCO1): 325 nm
absorption maximum (in CC#N): 328 nm
absorption maximum (in CC(C)CO): 323 nm
absorption maximum (in CC(C)O): 324 nm
absorption maximum (in CCCCC): 318 nm
absorption maximum (in CCCCCC): 320 nm
absorption maximum (in CCCCCCCCO): 329 nm
absorption maximum (in CCCCCCCO): 325 nm
absorption maximum (in CCCCCCO): 321 nm
absorption maximum (in CCCCO): 331 nm
absorption maximum (in CCCCOC(C)=O): 326 nm
absorption maximum (in CCCO): 328 nm
absorption maximum (in CCO): 327 nm
absorption maximum (in CCOC(C)=O): 321 nm
absorption maximum (in CCOCC): 327 nm
absorption maximum (in CN(C)C=O): 329 nm
absorption maximum (in CO): 328 nm
absorption maximum (in CS(C)=O): 329 nm
absorption maximum (in Cc1ccccc1): 324 nm
absorption maximum (in Cc1ccccc1C): 327 nm
absorption maximum (in ClC(Cl)Cl): 328 nm
absorption maximum (in ClCCl): 325 nm
absorption maximum (in N#Cc1ccccc1): 344 nm
absorption maximum (in OCCO): 328 nm
absorption maximum (in c1ccccc1): 328 nm

Compound: c1ccc(-c2nc(-c3ccccc3)nc(-c3ccc(-n4c5ccccc5c5cc6c(cc54)C(c4ccccc4)(c4ccccc4)c4ccccc4-6)cc3)n2)cc1
absorption maximum (in Cc1ccccc1): 366 nm

Compound: Oc1ccc(C2=N[N+]3=Cc4c(ccc5ccccc45)O[B-]3(c3ccc([B-]45OC(c6ccc(O)cc6)=N[N+]4=Cc4c(ccc6ccccc46)O5)cc3)O2)cc1 (stereo unspecified)
absorption maximum (in C1CCOC1): 424 nm

Compound: O=P1(c2ccccc2)C(c2cccs2)=Cc2ccccc21 (stereo unspecified)
absorption maximum (in C1CCOC1): 368 nm

Compound: CC1(C)CC(=O)C2=C(C1)Oc1ccc3ccc(O)cc3c1C2c1ccccn1 (stereo unspecified)
absorption maximum (in C1CCOC1): 335 nm
absorption maximum (in C1COCCO1): 335 nm
absorption maximum (in CC#N): 334 nm
absorption maximum (in CCCCCCC): 276 nm
absorption maximum (in CCO): 334 nm
absorption maximum (in CO): 341 nm
absorption maximum (in O): 274 nm

Compound: CCn1c2ccccc2c2cc(-c3cc(-c4ccc5c(c4)c4ccccc4n5CC)nc(OC)n3)ccc21
absorption maximum (in C1CCOC1): 366 nm
absorption maximum (in CCOC(C)=O): 364 nm
absorption maximum (in CN(C)C=O): 369 nm
absorption maximum (in Cc1ccccc1): 365 nm
absorption maximum (in ClCCl): 366 nm

Compound: CCCCn1/c(=C/C=C/C2=[N+](C)c3ccccc3C2(C)C)c2cccc3cccc1c32
absorption maximum (in CS(C)=O): 672 nm

Compound: O=C(c1ccc(-n2c3ccccc3c3cc(-n4c5ccccc5c5ccccc54)ccc32)cc1)c1ccc(-n2c3ccccc3c3cc(-n4c5ccccc5c5ccccc54)ccc32)cn1
absorption maximum (in Cc1ccccc1): 345 nm

Compound: COCCC1=Cc2nc1ccc1[nH]c(cc1CCOC)c1nc(c(NC(=O)CCCC(=O)O)cc3[nH]c2cc3CCOC)C(CCOC)=C1
absorption maximum (in Cc1ccccc1): 645 nm

Compound: CC1(C)c2ccccc2N(c2ccc3c(c2)C(c2ccccc2)(c2ccccc2)c2cc(N4c5ccccc5C(C)(C)c5ccccc54)ccc2S3(=O)=O)c2ccccc21
absorption maximum (in Cc1ccccc1): 364 nm

Compound: C#CCNC1=C2C(C)=CC(C)=[N+]2[B-](F)(F)n2c(C)cc(C)c21
absorption maximum (in C1CCCCC1): 468.5 nm
absorption maximum (in CC(C)=O): 453 nm
absorption maximum (in CCOC(C)=O): 457 nm
absorption maximum (in CO): 453 nm
absorption maximum (in OCC(F)(F)F): 450.5 nm

Compound: CC(C)(C)c1ccc2c(c1)c1cc(C(C)(C)C)ccc1n2-c1cc(C(=O)c2ccncc2)cc(-n2c3ccc(C(C)(C)C)cc3c3cc(C(C)(C)C)ccc32)c1
absorption maximum (in Cc1ccccc1): 396 nm

Compound: CC(C)(C)c1ccc(C(C)(C)C)c(N2C(=O)c3cccc4c(-c5ccc(-c6ccc(N(c7ccccc7)c7ccccc7)cc6)s5)ccc(c34)C2=O)c1
absorption maximum (in CO): 447 nm
absorption maximum (in CS(C)=O): 445 nm
absorption maximum (in Cc1ccccc1): 440 nm

Compound: O=P1(c2ccccc2)C(c2ccc(N(c3ccccc3)c3ccccc3)cc2)=Cc2cc3ccccc3cc21 (stereo unspecified)
absorption maximum (in C1CCOC1): 407 nm
absorption maximum (in CC#N): 404 nm
absorption maximum (in CN(C)C=O): 407 nm
absorption maximum (in Cc1ccccc1): 412 nm
absorption maximum (in ClC(Cl)Cl): 417 nm
absorption maximum (in ClCCl): 414 nm

Compound: CCCCCCCCCCOc1ccc2c3c(oc2c1)C1=C2C(=O)N4C=Cc5c(oc6cc(OCCCCCCCCCC)ccc56)C4=C2C(=O)N1C=C3
absorption maximum (in CN(C)C=O): 648 nm
absorption maximum (in ClC(Cl)Cl): 648 nm

Compound: c1ccc(-c2nnc(-c3ccc(-n4c5ccccc5c5ccccc54)cc3)o2)cc1
absorption maximum (in Cc1ccccc1): 340 nm

Compound: CCCCCCCCC1(CCCCCCCC)c2cc(C#CC#Cc3ccc(N(c4ccccc4)c4ccccc4)cc3)ccc2-c2ccc(C=O)cc21
absorption maximum (in C1CCOC1): 377 nm
absorption maximum (in C1COCCO1): 383 nm
absorption maximum (in CC#N): 375 nm
absorption maximum (in CC(C)=O): 389 nm
absorption maximum (in CCCCCC): 378 nm
absorption maximum (in CCOC(C)=O): 381 nm
absorption maximum (in CN(C)C=O): 382 nm
absorption maximum (in CS(C)=O): 382 nm
absorption maximum (in Cc1ccccc1): 387 nm
absorption maximum (in ClC(Cl)Cl): 375 nm
absorption maximum (in ClCCl): 365 nm

Compound: COc1ccccc1-c1c(-c2ccccc2O)nc(-c2ccc(C(F)(F)F)cc2)n1-c1ccc(C)cc1
absorption maximum (in C1CCOC1): 313 nm
absorption maximum (in CC(C)O): 311 nm
absorption maximum (in CO): 309 nm
absorption maximum (in CS(C)=O): 315 nm
absorption maximum (in ClC(Cl)Cl): 314 nm
absorption maximum (in ClCCl): 313 nm

Compound: CC1(C)c2ccccc2N(c2ccccc2)c2ccc(C(=O)c3ccc4c(c3)C(C)(C)c3ccccc3N4c3ccccc3)cc21
absorption maximum (in Cc1ccccc1): 371.57 nm

Compound: C(#Cc1c(C#Cc2cccs2)c(C#Cc2cccs2)c(C#Cc2cccs2)c(C#Cc2cccs2)c1C#Cc1cccs1)c1cccs1
absorption maximum (in ClCCl): 371 nm

Compound: N#Cc1c(-n2c3ccc(Br)cc3c3cc(Br)ccc32)c(C#N)c(-n2c3ccc(Br)cc3c3cc(Br)ccc32)c(-n2c3ccc(Br)cc3c3cc(Br)ccc32)c1-n1c2ccc(Br)cc2c2cc(Br)ccc21
absorption maximum (in Cc1ccccc1): 374 nm

Results, then the compound that gave them:

absorption maximum (in C1CCOC1): 518 nm
Compound: CSC1=C(C)C2=C(c3ccc(C)cc3)c3c(C)c(Cl)c(C)n3[B-](F)(F)[N+]2=C1C

absorption maximum (in C1CCOC1): 398 nm
Compound: C[Si]1(c2ccccc2)C(c2ccc3c4ccccc4n(-c4ccccc4)c3c2)=C(c2ccccc2)C(c2ccccc2)=C1c1ccc2c3ccccc3n(-c3ccccc3)c2c1

absorption maximum (in ClC(Cl)Cl): 485 nm
Compound: N#Cc1nc(N(Cc2ccccc2Br)Cc2ccccc2Br)c(C#N)nc1N(Cc1ccccc1Br)Cc1ccccc1Br

absorption maximum (in ClCCl): 382 nm
Compound: CCCCC(CC)COc1ccc2nc(-c3ccc(-c4cccs4)s3)sc2c1 (stereo unspecified)

absorption maximum (in CO): 291 nm
absorption maximum (in O): 290 nm
Compound: CCOC(=O)CCOc1ccccc1C(c1c(C)[nH]c2ccccc12)c1c(C)[nH]c2ccccc12

absorption maximum (in C1CCOC1): 341 nm
Compound: c1ccc(-n2c3ccccc3c3cc(-c4ccn5nc(-c6ccc(-n7c8ccccc8c8ccccc87)cc6)nc5c4)ccc32)cc1

absorption maximum (in CC#N): 380 nm
absorption maximum (in CCCCCC): 384 nm
absorption maximum (in CO): 380 nm
absorption maximum (in CS(C)=O): 390 nm
absorption maximum (in ClC(Cl)Cl): 384 nm
Compound: N#Cc1ccc(N/N=C/c2ccc3ccccc3c2O)cc1

absorption maximum (in CO): 374 nm
Compound: O=C(O)CCCc1cc2ccc3cccc4ccc(c1)c2c34

absorption maximum (in ClC(Cl)Cl): 422 nm
Compound: CCCC1(CCC)c2cc(C=C(C#Cc3ccccc3)C#Cc3ccccc3)ccc2-c2ccc(C=C(C#Cc3ccccc3)C#Cc3ccccc3)cc21

absorption maximum (in C1CCCCC1): 265.82 nm
Compound: COc1ccc(-c2ccccc2)cc1

absorption maximum (in C1CCCCC1): 386 nm
Compound: COc1ccc2c3c(c4ccc(OC)cc4c2c1)C1(c2ccccc2-c2ccccc21)c1ccccc1-3

absorption maximum (in ClCCl): 395 nm
Compound: CCCCCCn1c(=O)c2c3oc4ccccc4oc3c3c(=O)n(CCCCCC)c(=O)c3c2c1=O

absorption maximum (in ClCCl): 353 nm
Compound: COc1ccc(-c2nnc(-c3cc(-n4c5ccccc5c5ccccc54)c(-n4c5ccccc5c5ccccc54)cc3-c3nnc(-c4ccc(OC)cc4)o3)o2)cc1

absorption maximum (in C1CCCCC1): 397 nm
absorption maximum (in CO): 397 nm
absorption maximum (in CS(C)=O): 397 nm
absorption maximum (in ClC(Cl)Cl): 399 nm
absorption maximum (in c1ccccc1): 397 nm
Compound: CCC1=C(C)C(=O)n2c1cc1c(c(C)c(C(=O)OCC(C)C)n1CC(C)C)c2=O

absorption maximum (in ClC(Cl)Cl): 314 nm
Compound: CN(C)c1ccc(-c2nc(-c3ccccc3)n3ccccc23)cc1

absorption maximum (in ClCCl): 373 nm
Compound: C(=C\c1ncccn1)/c1ccc(-c2ccc(N(c3ccccc3)c3ccccc3)cc2)cc1

absorption maximum (in ClCCl): 306.5 nm
Compound: CCCCCCCCCCCCCCn1c(-c2cc(-c3nc4ccc(C)cc4n3CCCCCCCCCCCCCC)cc(-c3nc4ccc(C)cc4n3CCCCCCCCCCCCCC)c2)nc2ccc(C)cc21

absorption maximum (in CC#N): 440 nm
Compound: Cc1cccc2c1nc1c(=O)n(C)c(=O)nc-1n2C

absorption maximum (in O): 646 nm
Compound: Cc1ccc(C2=C3C=CC(=[N+](C)C)C=C3[Si](C)(C)c3cc(N(C)C)ccc32)c(C)c1

absorption maximum (in ClCCl): 389 nm
Compound: CCCCCCN1C(=O)c2cccc3c(-c4ccc(-c5cc(-c6ccc(C)cc6)nn5-c5ccccc5)s4)ccc(c23)C1=O

absorption maximum (in C1CCOC1): 354 nm
absorption maximum (in CC#N): 354 nm and 352 nm
absorption maximum (in CCCCCC): 352 nm
Compound: CC1=N/C(=C\c2cccc(N(C)C)c2)C(=O)N1C

absorption maximum (in CC#N): 295 nm
Compound: COc1cccc(/C=C/c2ccccc2)c1

absorption maximum (in ClCCl): 339 nm
Compound: CCOC(=O)c1c(-c2cc3ccc(OCC=C(C)C)cc3oc2=O)nn(-c2cccc(Cl)c2)c1C(=O)OCC

absorption maximum (in ClC(Cl)Cl): 340 nm
Compound: CCCCCCN1C(=O)c2cccc3cc(/N=C\c4ccc5c(c4)c4ccccc4n5CC)cc(c23)C1=O

absorption maximum (in ClCCl): 650 nm
Compound: CC(C)(C)c1ccc(Oc2cc3c4c(cc(Oc5ccc(C(C)(C)C)cc5)c5c6c(Oc7ccc(C(C)(C)C)cc7)cc7c8c(cc(Oc9ccc(C(C)(C)C)cc9)c(c2c45)c86)C(=O)C2=C7O[B-](F)(F)[n+]4c2ccc2ccccc24)C2=C(C3=O)c3ccc4ccccc4[n+]3[B-](F)(F)O2)cc1

absorption maximum (in C1CCOC1): 282 nm
Compound: Cc1ccc(-c2ccc(-c3ccc(C)cc3)c(/C(=C(/c3ccccc3)c3cc(-c4ccc(C)cc4)ccc3-c3ccc(C)cc3)c3ccccc3)c2)cc1

absorption maximum (in C1COCCO1): 402 nm
absorption maximum (in CC#N): 401 nm
absorption maximum (in CCCCOCCCC): 402 nm
absorption maximum (in CCOC(C)=O): 402 nm
Compound: c1ccc(Nc2nc(Nc3ccccc3)nc(Nc3ccc4cc5ccccc5cc4c3)n2)cc1

absorption maximum (in CN(C)C=O): 349 nm
Compound: c1ccc2[nH]c(-c3ccc(-c4ccc(-c5ccc(-c6nc7ccccc7[nH]6)cc5)cc4)cc3)nc2c1
